Test results reported in patent US20090281119A1, “ACID ADDITION SALTS OF N-ETHYI-N'-[2-METHOXY-4-(5-METHYI-4-PRYIMIDIN-2-YL)PHENYL]UREA AND USES THEREOF” (Cytopia Research Pty Ltd., priority 2005, published 2009).

Assays:
physchem = format: physicochemical; conditions: 24 °C; water at 24±3° C.
Excerpt: (§1) Acid addition salts of the first aspect are well-suited to pharmaceutical formulation as either solution or solid dosage forms. […] It has been shown that these particular salts are also non-hygroscopic and this remains unchanged when stored in a humid environment. The lower hygroscopicity is a further advantage for processing and storing such acid addition salts.

[1] = hygroscopicity of the salts; format: physicochemical; conditions: crystal form / solid salt
Excerpt: as §1

tubulin = experiment: inhibition of tubulin polymerisation; format: biochemical; conditions: read-out: inhibits tubulin polymerisation, IC50
Excerpt: One pharmacologically important mechanism of inhibiting cellular proliferation is by means of binding tubulin. Tubulin is an asymmetric dimer composed of alpha and beta subunits, that polymerizes to form structural components of the cytoskeleton called microtubules. Microtubules must be highly dynamic in order to carry out many of their functions. At certain stages of the cell cycle, or in particular cell types or organelles, stable microtubules are required, such as for transport within axons or for ciliary and flagellar movement. Micro-tubules assemble during the G2 phase of the cell cycle, and participate in the formation of the mitotic spindle which facilitates the segregation of sister chromatids during the process of cell division. The essential role of microtubules in cell division and the ability of drugs that interact with tubulin to interfere with the cell cycle have made tubulin a successful target for applications that include anti-cancer drugs, fungicides, and herbicides.
The compound of formula I, and by analogy its acid addition salts, inhibits tubulin polymerisation with an IC50 of 3 μM. […] The inhibition of tubulin polymerisation makes a compound of formula I suitable for the treatment of cancer, viral and bacterial infections, vascular restenosis, inflammatory diseases, autoimmune diseases, and psoriasis.

in vivo tumour models = experiment: vascular targeting activity in in vivo tumour models

CCC[C@H](Nc1nc(-c2ccc(NC(=O)NCC)c(OC)c2)ncc1C)c1cccnc1.O=C(O)CC(O)(CC(=O)O)C(=O)O [citrate salt, N-ethyl-N′-[2-methoxy-4-(5-methyl-4-{[(1S)-1-pyridin-3-ylbutyl]amino}pyrimidin-2-yl)phenyl]urea citrate salt]
solubility (physchem): > 2100 µg/mL
hygroscopicity [1]: not hygroscopic

CCC[C@H](Nc1nc(-c2ccc(NC(=O)NCC)c(OC)c2)ncc1C)c1cccnc1 [compound of formula I, N-ethyl-N′-[2-methoxy-4-(5-methyl-4-{[(1S)-1-pyridin-3-ylbutyl]amino}pyrimidin-2-yl)phenyl]urea]
IC50 (tubulin): 3000 nM
vascular targeting activity (in vivo tumour models): displays vascular targeting activity

CCC[C@H](Nc1nc(-c2ccc(NC(=O)NCC)c(OC)c2)ncc1C)c1cccnc1.CS(=O)(=O)O.CS(=O)(=O)O [di-methanesulfonate salt, N-ethyl-N′-[2-methoxy-4-(5-methyl-4-{[(1S)-1-pyridin-3-ylbutyl]amino}pyrimidin-2-yl)phenyl]urea di-methanesulfonate salt]
solubility (physchem): > 2100 µg/mL
hygroscopicity [1]: not hygroscopic

CCC[C@H](Nc1nc(-c2ccc(NC(=O)NCC)c(OC)c2)ncc1C)c1cccnc1.Cl.Cl [dihydrochloride salt, N-ethyl-N′-[2-methoxy-4-(5-methyl-4-{[(1S)-1-pyridin-3-ylbutyl]amino}pyrimidin-2-yl)phenyl]urea dihydrochloride salt]
solubility (physchem): > 2100 µg/mL
hygroscopicity [1]: not hygroscopic

CCC[C@H](Nc1nc(-c2ccc(NC(=O)NCC)c(OC)c2)ncc1C)c1cccnc1.O=C(O)C(=O)O [mono-oxalate salt, N-ethyl-N′-[2-methoxy-4-(5-methyl-4-{[(1S)-1-pyridin-3-ylbutyl]amino}pyrimidin-2-yl)phenyl]urea mono-oxalate salt]
solubility (physchem): > 2100 µg/mL
hygroscopicity [1]: not hygroscopic

CCC[C@H](Nc1nc(-c2ccc(NC(=O)NCC)c(OC)c2)ncc1C)c1cccnc1.O=C(O)C(O)C(O)C(=O)O [tartrate salt, N-ethyl-N′-[2-methoxy-4-(5-methyl-4-{[(1S)-1-pyridin-3-ylbutyl]amino}pyrimidin-2-yl)phenyl]urea tartrate salt]
solubility (physchem): > 2100 µg/mL
hygroscopicity [1]: not hygroscopic
